Test results published in patent publication US10092546B2, “Imidazole derivatives” (Hoffman-La Roche Inc., priority 2015, dated 2018).

These molecules were tested against T1, human EAAT3 (Homo sapiens, UniProt P43005) (assay: FLIPR Membrane Potential (FMP) assay, antagonist potency at human EAAT3). Settings: HEK-293 cells stably expressing human EAAT3; L-glutamate as agonist at EC80; antagonist applied 15 min before; Kb by Cheng-Prusoff from IC50.
T1 construct: expressed in transfected cells
T1 sequence (P43005 1-524): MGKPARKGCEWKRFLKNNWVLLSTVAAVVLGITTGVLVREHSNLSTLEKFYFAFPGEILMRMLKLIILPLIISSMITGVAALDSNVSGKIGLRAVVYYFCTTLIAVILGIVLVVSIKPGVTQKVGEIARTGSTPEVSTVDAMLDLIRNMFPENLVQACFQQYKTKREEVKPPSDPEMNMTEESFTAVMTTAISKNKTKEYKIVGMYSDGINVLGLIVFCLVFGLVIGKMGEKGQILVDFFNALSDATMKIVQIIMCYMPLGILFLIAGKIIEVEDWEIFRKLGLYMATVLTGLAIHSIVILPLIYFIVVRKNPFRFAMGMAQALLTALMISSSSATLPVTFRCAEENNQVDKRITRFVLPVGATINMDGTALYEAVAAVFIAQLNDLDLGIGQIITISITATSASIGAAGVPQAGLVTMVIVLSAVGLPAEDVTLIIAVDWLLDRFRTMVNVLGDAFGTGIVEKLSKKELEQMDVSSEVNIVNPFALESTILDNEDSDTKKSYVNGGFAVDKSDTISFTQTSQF
Type: cell-based
Procedure: The FLIPR Membrane Potential (FMP) Assay
HEK-293 cells stably expressing human EAAT3 were seeded at 55 000 cells/well in growth medium (DMEM glutamate free (Invitrogen 11960-044), 1% Pen Strep (10 ml/l GIBCO BRL No 15140-023), 10% FCS non dialysed heat inactivated, 5 mg/l puromycin) in poly-D-lysine treated 96-well black microtiter plates with clear-bottom. After 24 h, the growth medium was removed and 100 μl/well of Krebs buffer (140 mM NaCl, 4.7 mM KCl, 2.5 mM CaCl2, 1.2 mM MgCl2, 11 mM HEPES, 10 mM D-glucose, pH=7.4) added. The cells were then loaded by adding 100 μl/well FMP assay dye (FLIPR Membrane Potential assay reagent, Molecular Devices). The 96-well plates were then incubated at 37° C. for 1 h. The depolarization of the cells will cause more dye to enter in the cells, where it will bind to intracellular proteins and lipids and cause an increase in the fluorescence signal. Antagonist potency at human EAAT3 was determined by using L-glutamate as agonist at a concentration which gives 80% of the maximum response. The antagonists were applied 15 min before the application of the agonist L-glutamate. The assays were performed at room temperature and measurements done by using a Fluorometric Imaging Plate Reader (FLIPR, Molecular Devices) and filter #2. Responses were measured as peak increase in fluorescence minus basal (i.e. fluorescence without addition of L-glutamate). Kb was determined using the Cheng-Prusoff equation Kb=IC50/[1+(A/EC50)], where IC50 is the concentration of the antagonist producing 50% inhibition, A is the concentration of the agonist against which the IC50 is being determined (at EC80) and EC50 is the concentration of the agonist producing 50% […].

Row | Structure (SMILES) | Kb
1 | CC(C)c1nccn1-c1cc(C(=O)NC(C)(C)C)cc(-c2ccc(Cl)cc2)n1 [Example 1, N-tert-Butyl-2-(4-chlorophenyl)-6-(2-propan-2-yl-imidazol-1-yl)-pyridine-4-carboxamide] | 140 nM
2 | CC(C)c1nccn1-c1cc(C(=O)NC(C)(C)C)cc(-c2ccc(C(F)(F)F)cc2)n1 [Example 3, N-tert-Butyl-2-(2-propan-2-yl-imidazol-1-yl)-6-[4-(trifluoromethyl)-phenyl]-pyridine-4-carboxamide] | 460 nM
3 | CC(C)(C)NC(=O)c1cc(-c2ccc(F)cc2)nc(-n2ccnc2C2CC2)c1 [Example 4, N-tert-Butyl-2-(2-cyclopropyl-imidazol-1-yl)-6-(4-fluorophenyl)-pyridine-4-carboxamide] | 160 nM
4 | CC(C)(C)NC(=O)c1cc(-c2ccc(Cl)cc2)nc(-n2ccnc2C2CC2)c1 [Example 5, N-tert-Butyl-2-(4-chlorophenyl)-6-(2-cyclopropyl-imidazol-1-yl)-pyridine-4-carboxamide] | 120 nM
5 | CC(C)(C)NC(=O)c1cc(-c2ccc(F)cc2)nc(-n2ccnc2)c1 [Example 6, N-tert-Butyl-2-(4-fluorophenyl)-6-imidazol-1-yl-pyridine-4-carboxamide] | 1000 nM
6 | Cc1nccn1-c1cc(C(=O)NC(C)(C)C)cc(-c2ccc(F)cc2)n1 [Example 7, N-tert-Butyl-2-(4-fluorophenyl)-6-(2-methyl-imidazol-1-yl)-pyridine-4-carboxamide] | 430 nM
7 | CCc1nccn1-c1cc(C(=O)NC(C)(C)C)cc(-c2ccc(F)cc2)n1 [Example 8, N-tert-Butyl-2-(2-ethyl-imidazol-1-yl)-6-(4-fluorophenyl)-pyridine-4-carboxamide] | 210 nM
8 | CC(C)(C)NC(=O)c1cc(-c2ccc(Cl)cc2)nc(-n2ccnc2)c1 [Example 9, N-tert-Butyl-2-(4-chlorophenyl)-6-imidazol-1-yl-pyridine-4-carboxamide] | 600 nM
9 | Cc1nccn1-c1cc(C(=O)NC(C)(C)C)cc(-c2ccc(Cl)cc2)n1 [Example 10, N-tert-Butyl-2-(4-chlorophenyl)-6-(2-methyl-imidazol-1-yl)-pyridine-4-carboxamide] | 300 nM
10 | CCc1nccn1-c1cc(C(=O)NC(C)(C)C)cc(-c2ccc(Cl)cc2)n1 [Example 11, N-tert-Butyl-2-(4-chlorophenyl)-6-(2-ethyl-imidazol-1-yl)-pyridine-4-carboxamide] | 250 nM
11 | CC(C)(C)NC(=O)c1cc(-c2ccc(Cl)cc2)nc(-n2ccnc2C(C)(C)C)c1 [Example 12, N-tert-Butyl-2-(2-tert-butyl-imidazol-1-yl)-6-(4-chlorophenyl)-pyridine-4-carboxamide] | 63 nM
12 | CC(C)(C)NC(=O)c1cc(-c2ccc(F)cc2)nc(-n2ccnc2C(C)(C)C)c1 [Example 13, N-tert-Butyl-2-(2-tert-butyl-imidazol-1-yl)-6-(4-fluorophenyl)-pyridine-4-carboxamide] | 58 nM
13 | CC(C)c1nccn1-c1cc(C(=O)NC(C)(C)C2CC2)cc(-c2ccc(Cl)cc2)n1 [Example 15, 2-(4-Chlorophenyl)-N-(2-cyclopropylpropan-2-yl)-6-(2-propan-2-yl-imidazol-1-yl)-pyridine-4-carboxamide] | 150 nM
14 | CC(C)(NC(=O)c1cc(-c2ccc(Cl)cc2)nc(-n2ccnc2C2CC2)c1)C1CC1 [Example 16, 2-(4-Chlorophenyl)-6-(2-cyclopropyl-imidazol-1-yl)-N-(2-cyclopropyl-propan-2-yl)-pyridine-4-carboxamide] | 300 nM

Other lines, results leading:

Row | Kb | Structure (SMILES)
15 | 140 nM | CC(C)c1nccn1-c1cc(C(=O)NC2(C)CCS(=O)(=O)C2)cc(-c2ccc(F)cc2)n1 (racemic) [Example 38, (RS)-2-(4-Fluorophenyl)-N-(3-methyl-1,1-dioxothiolan-3-yl)-6-(2-propan-2-ylimidazol-1-yl)-pyridine-4-carboxamide]
16 | 280 nM | CC(C)(C)c1nccn1-c1cc(C(=O)NC(C)(C)C2CC2)cc(-c2ccc(Cl)cc2)n1 [Example 17, 2-(2-tert-Butylimidazol-1-yl)-6-(4-chlorophenyl)-N-(2-cyclopropyl-propan-2-yl)-pyridine-4-carboxamide]
17 | 100 nM | CC(C)(C)NC(=O)c1cc(-c2ccc(F)cc2)nc(-n2ccnc2C(C)(C)O)c1 [Example 18, N-tert-Butyl-2-(4-fluorophenyl)-6-[2-(2-hydroxypropan-2-yl)-imidazol-1-yl]-pyridine-4-carboxamide]
18 | 180 nM | CC(C)(C)NC(=O)c1cc(-c2ccc(C(F)(F)F)cc2)nc(-n2ccnc2C(C)(C)C)c1 [Example 19, N-tert-Butyl-2-(2-tert-butylimidazol-1-yl)-6-[4-(trifluoromethyl)-phenyl]-pyridine-4-carboxamide]
19 | 290 nM | CC(C)(C)NC(=O)c1cc(-c2ccc(C(F)(F)F)cc2)nc(-n2ccnc2C2CC2)c1 [Example 20, N-tert-Butyl-2-(2-cyclopropyl-imidazol-1-yl)-6-[4-(trifluoromethyl)-phenyl]-pyridine-4-carboxamide]
20 | 650 nM | Cc1nccn1-c1cc(C(=O)NC(C)(C)C)cc(-c2ccc(C(F)(F)F)cc2)n1 [Example 21, N-tert-Butyl-2-(2-methyl-imidazol-1-yl)-6-[4-(trifluoromethyl)-phenyl]-pyridine-4-carboxamide]
21 | 500 nM | CC(C)(C)NC(=O)c1cc(-c2ccc(Cl)cc2)nc(-n2ccnc2CO)c1 [Example 22, N-tert-Butyl-2-(4-chlorophenyl)-6-[2-(hydroxymethyl)-imidazol-1-yl]-pyridine-4-carboxamide]
22 | 320 nM | CC(C)c1nccn1-c1cc(C(=O)NC(C)(C)C(F)(F)F)cc(-c2ccc(Cl)cc2)n1 [Example 23, 2-(4-Chlorophenyl)-6-(2-propan-2-yl-imidazol-1-yl)-N-(1,1,1-trifluoro-2-methylpropan-2-yl)-pyridine-4-carboxamide]
23 | 510 nM | CC(C)(NC(=O)c1cc(-c2ccc(Cl)cc2)nc(-n2ccnc2C2CC2)c1)C(F)(F)F [Example 24, 2-(4-Chlorophenyl)-6-(2-cyclopropyl-imidazol-1-yl)-N-(1,1,1-trifluoro-2-methylpropan-2-yl)-pyridine-4-carboxamide]
24 | 150 nM | Cc1cc(-c2cc(C(=O)NC(C)(C)C)cc(-n3ccnc3C(C)(C)C)n2)ccc1F [Example 29, N-tert-Butyl-2-(2-tert-butyl-imidazol-1-yl)-6-(4-fluoro-3-methyl-phenyl)-pyridine-4-carboxamide]
25 | 190 nM | CC(C)c1nccn1-c1cc(C(=O)NC(C)(C)CO)cc(-c2ccc(Cl)cc2)n1 [Example 30, 2-(4-Chlorophenyl)-N-(1-hydroxy-2-methylpropan-2-yl)-6-(2-propan-2-yl-imidazol-1-yl)-pyridine-4-carboxamide]
26 | 170 nM | CC(C)(C)NC(=O)c1cc(-c2ccc(Cl)cc2)nc(-n2ccnc2C(C)(C)O)c1 [Example 33, N-tert-Butyl-2-(4-chlorophenyl)-6-[2-(2-hydroxypropan-2-yl)-imidazol-1-yl]-pyridine-4-carboxamide]
27 | 240 nM | CC(C)(C)NC(=O)c1cc(-c2ccc(C(F)(F)F)cc2)nc(-n2ccnc2C(C)(C)O)c1 [Example 34, N-tert-Butyl-2-[2-(2-hydroxypropan-2-yl)-imidazol-1-yl]-6-[4-(trifluoromethyl)-phenyl]-pyridine-4-carboxamide]
28 | 150 nM | CC(C)(O)c1nccn1-c1cc(C(=O)NC(C)(C)C2CC2)cc(-c2ccc(Cl)cc2)n1 [Example 35, 2-(4-Chlorophenyl)-N-(2-cyclopropylpropan-2-yl)-6-[2-(2-hydroxypropan-2-yl)-imidazol-1-yl]-pyridine-4-carboxamide]
29 | 78 nM | CC(C)(O)c1nccn1-c1cc(C(=O)NC(C)(C)C(F)(F)F)cc(-c2ccc(Cl)cc2)n1 [Example 36, 2-(4-Chlorophenyl)-6-[2-(2-hydroxypropan-2-yl)-imidazol-1-yl]-N-(1,1,1-trifluoro-2-methylpropan-2-yl)-pyridine-4-carboxamide]
30 | 96 nM | CC(C)(C#N)NC(=O)c1cc(-c2ccc(Cl)cc2)nc(-n2ccnc2C(C)(C)C)c1 [Example 37, 2-(2-tert-Butylimidazol-1-yl)-6-(4-chlorophenyl)-N-(2-cyanopropan-2-yl)-pyridine-4-carboxamide]
